# Where two headings read alike, the source gives them in different places. *1 amine or outer side, *2 acyl side, *3 side chain or, on linkers, in order; H or OH if unused. Where a SMILES comes first, the peptide text is derived from it. Bridges are numbered along the chain shown (N, C = ends). [ ]: non-standard residue; d: D form. Biphenyl(4,4'-CH2)2 = c1cc(-c2ccc(C[*:2])cc2)ccc1C[*:1]; Pro(trans-4-F) = O=C(O)[C@@H]1C[C@@H](F)CN1; Phe(4-I) = N[C@@H](Cc1ccc(I)cc1)C(=O)O
# Legend:
# [1] = molecular target: T1, α-chymotrypsin (bovine pancreas) (Bos taurus, UniProt P00766); experiment: Peptide enzymatic degradation assay, α-chymotrypsin; format: in vitro ADME; settings: as E58; for stability to α-chymotrypsin (in words): compared with WT sequence
# T1 construct: purchased Sigma; host or cells: bovine pancreas
# Experimental: (§1) into individual aliquots at -20 °C. […]
# (§2) a concentration of 1 mg mL−1 concentration. The digestion samples were immediately prepared by mixing […]
# (§3) were then incubated at 25 °C for 6 hours. […]
# (§4) thermo-shaker for 6 hours. […]
# (§5) presence of enzyme (t=0). […]
# (§6) r = r଴ + A x e భ Eq. (SI - 10)
# (§7) τ = tଵ ln(2) Eq. (SI - 11)
# (§8) In all cases, control samples were […]
# (§9) replicates and error bars indicating the corresponding SD. […]
# [2] = molecular target: T2, Aurora-A122-403-C290A/C393A (Homo sapiens, UniProt O14965, C290A/C393A); experiment: Isothermal titration calorimetry (ITC); format: binding; settings: for -TΔS° / Kd / ΔG° / ΔH° / N (stoichiometry): ITC as E13
# T2 construct: Human Aurora-A kinase domain 122-403 wild-type or C290A/ C393A mutant; His tag (pET30TEV vector) (N, cleaved yes); made in house; host or cells: E. coli RIL, co-expressed with lambda phosphatase (Aurora-A); tracer by solid phase synthesis
# T2 sequence (O14965 122-403 C290A/C393A): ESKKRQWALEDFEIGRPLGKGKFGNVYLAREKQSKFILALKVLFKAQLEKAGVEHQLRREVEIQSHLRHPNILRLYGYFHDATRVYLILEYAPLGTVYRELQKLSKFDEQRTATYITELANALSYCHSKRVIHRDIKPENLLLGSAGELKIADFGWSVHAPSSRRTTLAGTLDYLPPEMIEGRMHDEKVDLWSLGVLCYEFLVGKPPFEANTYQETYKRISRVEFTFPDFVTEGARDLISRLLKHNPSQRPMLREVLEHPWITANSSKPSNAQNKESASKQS
# Experimental: Isothermal titration calorimetry (ITC). ITC experiments were carried out using a MicroCal PEAQ-ITC system (Malvern Panalytical) at 25 °C. A stock solution of Aurora-A 122-403-290A/C393A was dialyzed into ITC buffer overnight (25 mM Tris buffer, pH= 7.5; 150 mM NaCl; 5 mM MgCl2; 5 % v/v glycerol), and the same buffer was employed to resuspend a solid portion of the testing peptides. For each experiment, initially, the cell was filled with 275 µl of Aurora-A122-403-290A/C393A (46 μM) and the syringe was loaded with the corresponding peptide at 1.25 mM concentration. An initial injection of 0.5 μL was then followed by 13 injections of 3 μL, every 150 s, with a constant syringe rotation speed of 750 rpm throughout. The signal for the enthalpy of dilution of each peptide into buffer was independently measured in a control titration experiment and then subtracted from the experimental binding traces. The Kd, ΔG°, ΔH° and -TΔS° values were determined via the MicroCal PEAQ-ITC analysis software (Malvern Paranalytical) using a single-site binding model. […]
# [3] = molecular target: T3, Aurora-A122-403-C290A/C393A (N-Myc/Aurora-A interaction) (Homo sapiens, UniProt O14965, C290A/C393A); experiment: FA competition assay against FAM-Ahx-N-Myc61-89; format: binding; settings: SD; read-out: IC50 (N-Myc displacement)
# T3 construct: Human Aurora-A kinase domain 122-403 wild-type or C290A/ C393A mutant; His tag (pET30TEV vector) (N, cleaved yes); made in house; host or cells: E. coli RIL, co-expressed with lambda phosphatase (Aurora-A)
# T3 sequence (O14965 122-403 C290A/C393A): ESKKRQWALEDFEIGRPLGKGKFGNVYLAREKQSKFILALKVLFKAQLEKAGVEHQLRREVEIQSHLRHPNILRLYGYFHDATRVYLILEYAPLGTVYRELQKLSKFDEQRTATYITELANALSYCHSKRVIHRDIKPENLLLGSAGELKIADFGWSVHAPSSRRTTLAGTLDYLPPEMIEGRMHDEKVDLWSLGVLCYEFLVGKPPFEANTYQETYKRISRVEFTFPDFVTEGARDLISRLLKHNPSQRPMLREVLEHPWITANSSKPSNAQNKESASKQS
# Experimental: (1 picture or pasted object on this page, not shown here)
# FA competition assays were performed using the same plates and buffer as described above, with the initial […]
# 14 points in a 1/2 regime. […]
# after 4 h of incubation to enable appropriate sample equilibration. To prevent sample oxidation, when sulfhydryl peptides were analyzed DTT was added to the buffer (5 mM). In competition mode, the average anisotropy and the average standard deviation of the values derived from equation SI-6 were calculated […]
# When using peptides for which full
# For consistency, all the data […]
# indicating the corresponding SD.
# Molecular dynamics (MD) analyses: All peptide–protein complexes were subjected to duplicate MD simulations using YASARA structure.13 Starting from the reported x-ray crystal structure of one molecule of […]
# modifications were introduced by direct replacement of the relevant atoms within the structure. When needed, biphenyl constraints were modeled in YASARA by swapping the pertinent amino acids for cysteines and connecting them to biphenyl- fragments. […]
# crystal structure), and then minimised structures were generated using the energy minimization function with default settings. The modelled complexes were subjected to MD simulations using YASARA structure macro for fast MD run (www.yasara.org/md_runfast.mcr).14 Briefly, the AMBER14 forcefield was used and […]
# Trypsin [4] = experiment: Peptide enzymatic degradation assay, trypsin; settings: as E60, compared with WT TACC3 518-532
# [5] = molecular target: T2, Aurora-A122-403-C290A/C393A; experiment: Competition FA assay against FAM-Ahx-TACC3 522-536 tracer; format: binding; settings: SD; read-out: IC50
# Trypsin [6] = settings: pH 7.5
# [7] = Peptide enzymatic degradation assay, α-chymotrypsin; format: in vitro ADME, bovine; settings: α-chymotrypsin (bovine pancreas), peptide 100 µM, peptide/enzyme molar ratio [P]/[E]= 25, HEPES 25 mM, pH 7.5, 25 °C, 6 hours, RP-HPLC peak area, exponential decay fit, three independent experiments, mean ± SD, SD, read-out: t1/2 in the presence of α-chymotrypsin
# Experimental: as §1, §2, §3, §4, §5, §6, §7, §8, §9
# Aurora-A 122-403 [8] = molecular target: T4, Aurora-A 122-403 (Homo sapiens, UniProt O14965); experiment: fluorescence anisotropy competition against N-Myc
# T4 chain: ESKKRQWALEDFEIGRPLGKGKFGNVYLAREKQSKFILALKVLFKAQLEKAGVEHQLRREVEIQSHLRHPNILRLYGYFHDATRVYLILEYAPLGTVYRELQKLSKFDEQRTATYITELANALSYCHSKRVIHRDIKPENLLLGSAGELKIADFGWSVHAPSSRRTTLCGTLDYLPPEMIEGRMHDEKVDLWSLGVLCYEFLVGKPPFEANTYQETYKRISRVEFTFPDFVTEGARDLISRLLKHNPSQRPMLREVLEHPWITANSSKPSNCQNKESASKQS
# Aurora-A 122-403 [9] = molecular target: T4, Aurora-A 122-403; experiment: fluorescence anisotropy competition against TPX2
# [10] = N unrestrained fit, single titration
molecule,measurement,setting,value
"CC(=O)N[C@@H](CC(C)C)C(=O)N[C@@H](CCC(=O)O)C(=O)N[C@H]1CSCc2ccc(cc2)-c2ccc(cc2)CSC[C@@H](C(=O)N[C@@H](CC(=O)O)C(=O)N2C[C@H](F)C[C@H]2C(=O)N[C@@H](C)C(=O)N[C@@H](CCC(=O)O)C(=O)N[C@H](C(=O)N[C@@H](CC(C)C)C(N)=O)C(C)C)NC(=O)[C@H](Cc2ccc(I)cc2)NC(=O)[C@H](CO)NC(=O)[C@H](CCC(=O)O)NC(=O)[C@H](CCC(=O)O)NC(=O)[C@H](CCCCN)NC1=O [TACC3 518-532-L/R-Bph-IF/fP] (Ac-LECKEES[Phe(4-I)]CD[Pro(trans-4-F)]AEVL-NH2; linker 3-9 via Biphenyl(4,4'-CH2)2)",time resistant to chymotrypsin with no cleavage by-products detected,[1]; HPLC and LC/MS analysis,~ 6 hr
same,stability to α-chymotrypsin (in words),[1],increased resistance
same,-TΔS°,"[2]; N restrained fit, Run 1",-5.5 kcal/mol
same,Kd,"[2]; N restrained fit, Run 1",5.6 µM
same,ΔG°,"[2]; N restrained fit, Run 1",-7.17 kcal/mol
same,ΔH°,"[2]; N restrained fit, Run 1",-1.65 kcal/mol
same,-TΔS°,"[2]; N restrained fit, Run 2",-5.33 kcal/mol
same,Kd,"[2]; N restrained fit, Run 2",5.9 µM
same,ΔG°,"[2]; N restrained fit, Run 2",-7.15 kcal/mol
same,ΔH°,"[2]; N restrained fit, Run 2",-1.79 kcal/mol
same,-TΔS°,"[2]; N unrestrained fit, Run 1",-5.71 kcal/mol
same,Kd,"[2]; N unrestrained fit, Run 1",4.6 µM
same,N (stoichiometry),"[2]; N unrestrained fit, Run 1",1.06
same,ΔG°,"[2]; N unrestrained fit, Run 1",-7.29 kcal/mol
same,ΔH°,"[2]; N unrestrained fit, Run 1",-1.55 kcal/mol
same,-TΔS°,"[2]; N unrestrained fit, Run 2",-5.43 kcal/mol
same,Kd,"[2]; N unrestrained fit, Run 2",5.5 µM
same,N (stoichiometry),"[2]; N unrestrained fit, Run 2",1.02
same,ΔG°,"[2]; N unrestrained fit, Run 2",-7.17 kcal/mol
same,ΔH°,"[2]; N unrestrained fit, Run 2",-1.74 kcal/mol
same,-TΔS,"[2]; ITC as E40, average of two independent titrations",-5.43 kcal/mol
same,IC50,[3],28.3 ± 1.2 µM
same,stability to trypsin (in words),Trypsin [4],increased resistance
same,IC50,[5],17 ± 1 µM
same,t1/2 in the presence of trypsin,Trypsin [6],≥ 330 min
"CC(=O)N[C@@H](CC(C)C)C(=O)N[C@@H](CCC(=O)O)C(=O)N[C@@H](CC(C)C)C(=O)N[C@@H](CCCCN)C(=O)N[C@@H](CCC(=O)O)C(=O)N[C@@H](CCC(=O)O)C(=O)N[C@H]1CSCc2ccc(cc2)-c2ccc(cc2)CSC[C@@H](C(=O)N[C@H](C(=O)N[C@@H](CC(C)C)C(N)=O)C(C)C)NC(=O)[C@H](C)NC(=O)[C@@H]2C[C@@H](F)CN2C(=O)[C@H](CC(=O)O)NC(=O)[C@H](CCCNC(=N)N)NC(=O)[C@H](Cc2ccc(I)cc2)NC1=O [TACC3 518-532-S/E-Bph-IF/fP] (Ac-LELKEEC[Phe(4-I)]RD[Pro(trans-4-F)]ACVL-NH2; linker 7-13 via Biphenyl(4,4'-CH2)2)",stability to α-chymotrypsin (in words),[1],not protected
same,half-life at 100 µM,[7],26 ± 2 min
same,-TΔS°,[2]; [10],-4.47 kcal/mol
same,Kd,[2]; [10],16.7 µM
same,N (stoichiometry),[2]; [10],1.62
same,ΔG°,[2]; [10],-6.52 kcal/mol
same,ΔH°,[2]; [10],-2.06 kcal/mol
same,stability to trypsin (in words),Trypsin [4],only partially improved stability
same,stability to trypsin (in words),Trypsin [4]; listed as S/E constrained variant,not protected
same,IC50,[5],12 ± 1 µM
CC(=O)N[C@@H](CC(C)C)C(=O)N[C@@H](CCC(=O)O)C(=O)N[C@@H](CC(C)C)C(=O)N[C@@H](CCCCN)C(=O)N[C@@H](CCC(=O)O)C(=O)N[C@@H](CCC(=O)O)C(=O)N[C@@H](CO)C(=O)N[C@@H](Cc1ccccc1)C(=O)N[C@@H](CCCNC(=N)N)C(=O)N[C@@H](CC(=O)O)C(=O)N1CCC[C@H]1C(=O)N[C@@H](C)C(=O)N[C@@H](CCC(=O)O)C(=O)N[C@H](C(=O)N[C@@H](CC(C)C)C(N)=O)C(C)C [TACC3 518-532],half-life at 100 µM,[7]; isolated enzyme chymotrypsin,32 ± 4 min
same,Kd,"[2]; N restrained fit, Run 1",30.3 µM
same,Kd,"[2]; N restrained fit, Run 2",34.5 µM
same,Kd,"[2]; N unrestrained fit, Run 1",46 µM
same,Kd,"[2]; N unrestrained fit, Run 2",36.8 µM
same,IC50,[5],123 ± 6 µM
"LELKEESFRDPAEVL (not fully specified; L520C/R526C biphenyl constraint, (4-I)Phe525, trans-(4-F)Pro528; Aurora-A C290A+C393A) [TACC3 L/R-Bph-I/fP 518-532]",IC50,Aurora-A 122-403 [8],28 µM
same,IC50,Aurora-A 122-403 [9],> 200 µM

# From publication PMC11604048, “Constrained TACC3 peptidomimetics for a non-canonical protein–protein interface elucidate allosteric communication in Aurora-A kinase” (Chemical Science, 2024)
